Results taken from ChEMBL document CHEMBL1201862, “PubChem BioAssay data set” (2004).
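Protocol summary: plate cells (96-well), add compound at 5 concentrations, incubate 48 h, interpolate endpoints linearly. Here, GI50 denotes the concentration required for 50% inhibition of growth.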 Active and inactive are the calls of the source. Cut-off read from the data, not from the text of the source: active = GI50 up to about 1.1 µM and inactive = higher.

Legend:
Experiment in all cases: inhibition of tumour cell growth, NCI panel, 48 h
SNB-75 = system: SNB-75
RXF 393 = system: RXF 393
IGROV-1 = system: IGROV-1
SF-268 = system: SF-268
HCC 2998 = system: HCC 2998
M14 = system: M14
NCI-H226 = system: NCI-H226
UACC-257 = system: UACC-257
LOX IMVI = system: LOX IMVI
SNB-19 = system: SNB-19
OVCAR-8 = system: OVCAR-8
OVCAR-5 = system: OVCAR-5
TK-10 = system: TK-10
PC-3 = system: PC-3
SF-295 = system: SF-295
SK-MEL-28 = system: SK-MEL-28
HOP-92 = system: HOP-92
SK-MEL-2 = system: SK-MEL-2
SR = system: SR

Measured: GI50

c1ccc(-c2cnc(-c3ccc(-c4ncc(-c5ccccc5)o4)cc3)o2)cc1
inactive: SNB-75 56.5 µM | RXF 393 > 100 µM | IGROV-1 > 100 µM | SF-268 > 100 µM | HCC 2998 > 100 µM | M14 > 100 µM | NCI-H226 > 100 µM | UACC-257 > 100 µM | LOX IMVI > 100 µM | SNB-19 > 100 µM | OVCAR-8 > 100 µM | OVCAR-5 > 100 µM | TK-10 > 100 µM | PC-3 > 100 µM | SF-295 > 100 µM | SK-MEL-28 > 100 µM | HOP-92 > 100 µM

CCOC(=O)C(=C=Cc1cccs1)C(=O)c1ccccc1
inactive: SNB-75 15.8 µM | IGROV-1 17.3 µM | SF-268 15.9 µM | HCC 2998 17.4 µM | M14 15 µM | NCI-H226 15 µM | UACC-257 12.9 µM | LOX IMVI 12.4 µM | SK-MEL-2 19 µM | OVCAR-8 15.8 µM | OVCAR-5 15.2 µM | TK-10 15 µM | SR 19.9 µM | SF-295 17.8 µM | SK-MEL-28 14.8 µM | HOP-92 5.15 µM

COc1ccc(C2OC(c3ccncc3)=NN2C)cc1OC (stereo not given)
inactive: RXF 393 93.5 µM | IGROV-1 > 100 µM | SF-268 > 100 µM | HCC 2998 > 100 µM | M14 > 100 µM | NCI-H226 81.7 µM | UACC-257 > 100 µM | LOX IMVI > 100 µM | SNB-19 > 100 µM | SK-MEL-2 > 100 µM | OVCAR-8 > 100 µM | OVCAR-5 > 100 µM | TK-10 79.4 µM | PC-3 53.2 µM | SF-295 > 100 µM | SK-MEL-28 > 100 µM | HOP-92 48.9 µM

CN1C(=O)c2c(ccc3c2OCO3)C2C(O)Cc3cc4c(cc3C21)OCO4 (stereo not given)
inactive: SNB-75 1.89 µM | IGROV-1 2.36 µM | SF-268 8.75 µM | HCC 2998 4.06 µM | M14 5.78 µM | NCI-H226 2.15 µM | LOX IMVI 9.12 µM | SNB-19 3.21 µM | SK-MEL-2 2.47 µM | OVCAR-8 5.11 µM | OVCAR-5 > 100 µM | TK-10 7.8 µM | PC-3 2.58 µM | SF-295 1.71 µM | SK-MEL-28 3.22 µM | HOP-92 5.79 µM

Cc1cc2c(cc1Cl)SC(NNc1cnc3ccccc3n1)=NS2(=O)=O
inactive: SNB-75 72.3 µM | RXF 393 40.3 µM | IGROV-1 41.8 µM | SF-268 32.3 µM | HCC 2998 67.9 µM | M14 74.1 µM | NCI-H226 44.4 µM | UACC-257 72.8 µM | LOX IMVI 46 µM | SNB-19 50.1 µM | OVCAR-8 68.5 µM | OVCAR-5 > 100 µM | TK-10 > 100 µM | PC-3 35.4 µM | SF-295 29.9 µM | SK-MEL-28 60.5 µM | HOP-92 35.7 µM

CN(C)CCNc1ccc(NCC[N+](C)(C)Cc2ccc([N+](=O)[O-])cc2)c2c1C(=O)c1c(O)ccc(O)c1C2=O
inactive: SNB-75 19.6 µM | IGROV-1 40.3 µM | SF-268 19.8 µM | HCC 2998 > 10 µM | NCI-H226 15.3 µM | LOX IMVI 25.5 µM | SNB-19 > 100 µM | SK-MEL-2 > 100 µM | OVCAR-8 > 100 µM | PC-3 56 µM | SK-MEL-28 > 100 µM

N#Cc1nc(-c2ccccc2O)oc1N
inactive: RXF 393 55.7 µM | IGROV-1 40 µM | SF-268 64.3 µM | M14 > 100 µM | UACC-257 > 100 µM | LOX IMVI 53.7 µM | SNB-19 > 100 µM | SK-MEL-2 > 100 µM | OVCAR-8 89.1 µM | OVCAR-5 > 100 µM | TK-10 63.8 µM | PC-3 91.2 µM | SK-MEL-28 > 100 µM | HOP-92 > 100 µM

CC(C)OC1=C(CC2(C)OCCO2)C(=O)C12OCCO2
inactive: SNB-75 > 100 µM | IGROV-1 > 100 µM | SF-268 > 100 µM | M14 > 100 µM | NCI-H226 > 100 µM | UACC-257 > 100 µM | LOX IMVI > 100 µM | SNB-19 > 100 µM | SK-MEL-2 > 100 µM | OVCAR-8 > 100 µM | OVCAR-5 > 100 µM | TK-10 > 100 µM | PC-3 > 100 µM | SF-295 > 100 µM | SK-MEL-28 > 100 µM | HOP-92 > 100 µM

C[n+]1cccc2ccc(OC(=O)c3ccccc3)cc21
inactive: SNB-75 > 100 µM | RXF 393 > 100 µM | IGROV-1 > 100 µM | SF-268 > 100 µM | M14 > 100 µM | NCI-H226 > 100 µM | UACC-257 > 100 µM | LOX IMVI > 100 µM | SNB-19 > 100 µM | SK-MEL-2 > 100 µM | OVCAR-8 > 100 µM | OVCAR-5 > 100 µM | TK-10 > 100 µM | SF-295 > 100 µM | HOP-92 > 100 µM

COc1cc(/C=C2\C(=O)N(c3ccccc3)C(c3ccccc3)S2(=O)=O)cc(OC)c1OC (stereo not given)
inactive: RXF 393 17.1 µM | SF-268 > 100 µM | HCC 2998 64.6 µM | M14 35.2 µM | NCI-H226 46.8 µM | UACC-257 32.1 µM | LOX IMVI 31.4 µM | SNB-19 31 µM | SK-MEL-2 42.6 µM | OVCAR-8 21.3 µM | OVCAR-5 > 100 µM | TK-10 65 µM | SR 24.5 µM | SF-295 > 100 µM | SK-MEL-28 51.6 µM | HOP-92 33 µM

CCc1cccc(CC)c1NC(=O)C1=C(C)NC(C)=C(C(=O)Nc2c(CC)cccc2CC)C1c1ccc2c(c1)OCO2
inactive: SNB-75 18.8 µM | IGROV-1 18.8 µM | SF-268 18.1 µM | HCC 2998 21.6 µM | M14 16.8 µM | NCI-H226 15 µM | UACC-257 17.9 µM | LOX IMVI 12.7 µM | SNB-19 17.4 µM | SK-MEL-2 18.6 µM | OVCAR-8 18.5 µM | OVCAR-5 17.7 µM | TK-10 33.6 µM | SR 3.66 µM | SF-295 13.9 µM | SK-MEL-28 20 µM | HOP-92 14 µM

CC1=CC[C@@]2(CO)[C@@H]([C@@H]1C)[C@H]1CC[C@@H]3[C@@]4(C)CC[C@H](O)C(C)(C)[C@@H]4CC[C@@]3(C)[C@]1(C)C[C@@H]2O
inactive: RXF 393 7.08 µM | IGROV-1 29.3 µM | SF-268 21 µM | M14 28.2 µM | NCI-H226 27.2 µM | UACC-257 27.2 µM | LOX IMVI 15.8 µM | SNB-19 35.1 µM | OVCAR-8 14.3 µM | OVCAR-5 > 100 µM | TK-10 18.4 µM | PC-3 13.3 µM | SF-295 17 µM | SK-MEL-28 43.9 µM | HOP-92 16.9 µM

Cc1ccc(S(=O)(=O)NNC2(NS(=O)(=O)c3ccc(Cl)cc3)C(Cl)=C(Cl)C(=O)c3ccccc32)cc1 (stereo not given)
inactive: RXF 393 17 µM | IGROV-1 14.7 µM | SF-268 14 µM | HCC 2998 18.5 µM | M14 19 µM | UACC-257 17.6 µM | LOX IMVI 23.5 µM | SNB-19 16.3 µM | SK-MEL-2 20 µM | OVCAR-8 21.6 µM | OVCAR-5 18.3 µM | TK-10 16.8 µM | PC-3 16.7 µM | SF-295 20.9 µM | SK-MEL-28 25.7 µM | HOP-92 17.3 µM

CCOP(=O)(O)CC1OC(CO)C(O)C1O (stereo not given)
inactive: SNB-75 > 100 µM | RXF 393 > 100 µM | IGROV-1 > 100 µM | SF-268 > 100 µM | M14 > 100 µM | NCI-H226 > 100 µM | UACC-257 > 100 µM | LOX IMVI > 100 µM | SNB-19 > 100 µM | SK-MEL-2 > 100 µM | OVCAR-8 > 100 µM | OVCAR-5 > 100 µM | TK-10 > 100 µM | PC-3 > 100 µM | SF-295 > 100 µM | SK-MEL-28 > 100 µM | HOP-92 > 100 µM

N#CC(C#N)=CNC(=S)Nc1ccc(S(=O)(=O)Nc2nccs2)cc1
inactive: SNB-75 > 100 µM | RXF 393 > 100 µM | IGROV-1 > 100 µM | SF-268 > 100 µM | HCC 2998 > 100 µM | M14 > 100 µM | NCI-H226 > 100 µM | UACC-257 > 100 µM | LOX IMVI > 100 µM | SNB-19 > 100 µM | SK-MEL-2 > 100 µM | OVCAR-8 > 100 µM | OVCAR-5 > 100 µM | TK-10 > 100 µM | SF-295 > 100 µM | SK-MEL-28 > 100 µM | HOP-92 > 100 µM

CSc1ccc(/C=C2\N=C(c3ccccc3)N(c3nc4ccc(Sc5ccccc5)cc4[nH]3)C2=O)cc1
inactive: SNB-75 18.1 µM | RXF 393 17.4 µM | IGROV-1 36.5 µM | SF-268 27.6 µM | HCC 2998 16.7 µM | M14 15.3 µM | UACC-257 13.9 µM | LOX IMVI 17.6 µM | SNB-19 24.9 µM | SK-MEL-2 13 µM | OVCAR-8 28.2 µM | OVCAR-5 26.2 µM | TK-10 16.9 µM | PC-3 21.8 µM | SF-295 14.3 µM | SK-MEL-28 18.9 µM | HOP-92 33.6 µM

NS(=O)(=O)c1nnc(NC(=O)c2ccccc2)s1
inactive: RXF 393 > 100 µM | SF-268 > 100 µM | HCC 2998 > 100 µM | M14 > 100 µM | NCI-H226 > 100 µM | UACC-257 > 100 µM | LOX IMVI > 100 µM | SNB-19 > 100 µM | SK-MEL-2 > 100 µM | OVCAR-8 > 100 µM | OVCAR-5 > 100 µM | TK-10 > 100 µM | SR > 100 µM | SF-295 > 100 µM | SK-MEL-28 > 100 µM | HOP-92 65.3 µM
